Values after ≈ are worked out from the molar mass of the structure shown.
Columns and labels:
Test in all cases: MIC, agar incorporation method
Strep. pyog. ATCC 19615 = conditions: agar incorporation
Strep. pne. ATCC 6303 = conditions: agar incorporation
Ent. faecalis ATCC 29212 = conditions: agar incorporation
MRSA 15187 = conditions: agar incorporation
S. aureus ATCC 25923 = conditions: agar incorporation
VRE 6A (Ent. faecium 6A) = conditions: agar incorporation
MRSA 562 = conditions: agar incorporation; Table 1
MRSA 33 = conditions: agar incorporation
S. pneum AB 34 = conditions: agar incorporation

Row | Structure (SMILES) | MIC S. pyogenes 19615 (Strep. pyog. ATCC 19615) | MIC S. pneum 6303 (Strep. pne. ATCC 6303) | MIC E. faecalis 29212 (Ent. faecalis ATCC 29212) | MIC MRSA 15187 (MRSA 15187) | MIC S. aureus 25923 (S. aureus ATCC 25923) | MIC VRE 6A (VRE 6A (Ent. faecium 6A)) | MIC MRSA 562 (MRSA 562) | MIC MRSA 33 (MRSA 33) | MIC S. pneum AB 34 (S. pneum AB 34)
1 | CC(=O)NC[C@H]1CN(c2ccc(N3CCN(Cc4cc(Br)cs4)CC3)c(F)c2)C(=O)O1 [Compound No. 14, (S)-N-[[3-[3-Fluoro-4-[N-1[4-{2-thienyl(4-bromo)methyl}]piperazinyl]phenyl]-2-oxo-5-oxazolidinyl]methyl]acetamide] | 2 µg/mL (≈ 3.91 µM) | 4 µg/mL (≈ 7.82 µM) | 2 µg/mL (≈ 3.91 µM) | 2 µg/mL (≈ 3.91 µM) | 4 µg/mL (≈ 7.82 µM) | 2 µg/mL (≈ 3.91 µM) | 2 µg/mL (≈ 3.91 µM) | 2 µg/mL (≈ 3.91 µM) | 4 µg/mL (≈ 7.82 µM)
2 | CC(=O)NC[C@H]1CN(c2ccc(N3CCN(Cc4ccc(C=O)o4)CC3)c(F)c2)C(=O)O1 [Compound No. 02, (S)-N-[[3-[3-Fluoro-4-[N-1[4-{2-furyl(5-formyl)methyl}]piperazinyl]phenyl]-2-oxo-5-oxazolidinyl]methyl]acetamide] | 8 µg/mL (≈ 18 µM) | 4 µg/mL (≈ 9 µM) | 8 µg/mL (≈ 18 µM) | 2 µg/mL (≈ 4.5 µM) | 1 µg/mL (≈ 2.25 µM) | 8 µg/mL (≈ 18 µM) | 1 µg/mL (≈ 2.25 µM) | 2 µg/mL (≈ 4.5 µM) | 8 µg/mL (≈ 18 µM)
3 | CC(=O)NC[C@H]1CN(c2ccc(N3CCN(Cc4ccc(C5OCCCO5)o4)CC3)c(F)c2)C(=O)O1 [Compound No. 66] | 8 µg/mL (≈ 15.9 µM) | 8 µg/mL (≈ 15.9 µM) | 16 µg/mL (≈ 31.8 µM) | 2 µg/mL (≈ 3.98 µM) | 2 µg/mL (≈ 3.98 µM) | 16 µg/mL (≈ 31.8 µM) | 2 µg/mL (≈ 3.98 µM) | 2 µg/mL (≈ 3.98 µM) | 8 µg/mL (≈ 15.9 µM)
4 | CC(=O)NC[C@H]1CN(c2ccc(N3CCN(Cc4ccc(Br)s4)CC3)c(F)c2)C(=O)O1 [Compound No. 27] | 1 µg/mL (≈ 1.96 µM) | 2 µg/mL (≈ 3.91 µM) | 2 µg/mL (≈ 3.91 µM) | 2 µg/mL (≈ 3.91 µM) | 2 µg/mL (≈ 3.91 µM) | 4 µg/mL (≈ 7.82 µM) | 2 µg/mL (≈ 3.91 µM) | 2 µg/mL (≈ 3.91 µM) | 0.5 µg/mL (≈ 0.978 µM)
5 | CC(=O)NC[C@H]1CN(c2ccc(N3CCN(Cc4cccn4C)CC3)c(F)c2)C(=O)O1 [Compound No. 22, (S)-N[[3-[3-Fluoro-4-[N-1[4-{2-pyrrole(1-methyl)methyl}]piperazinyl]phenyl]2-oxo-5-oxazolidinyl]methyl]acetamide] | 1 µg/mL (≈ 2.33 µM) | 1 µg/mL (≈ 2.33 µM) | 8 µg/mL (≈ 18.6 µM) | 8 µg/mL (≈ 18.6 µM) | 2 µg/mL (≈ 4.66 µM) | 8 µg/mL (≈ 18.6 µM) | 4 µg/mL (≈ 9.31 µM) | 8 µg/mL (≈ 18.6 µM) | 1 µg/mL (≈ 2.33 µM)
6 | CC(=O)NC[C@H]1CN(c2ccc(N3C[C@@H]4[C@@H](CN(C)C(=O)Cc5cccs5)[C@@H]4C3)c(F)c2)C(=O)O1 [Compound No. 38, (S)-N-[[3-[3-Fluoro[4-[3-(1α,5α,6α)-6-[N-(2-thiopheneacetyl)-N-methyl]amino-methyl]-3-azabicyclo-[3.1.0]hexane]phenyl]-2-oxo-5-oxazolidinyl]methyl]acetamide] | 1 µg/mL (≈ 2 µM) | 1 µg/mL (≈ 2 µM) | 4 µg/mL (≈ 7.99 µM) | 4 µg/mL (≈ 7.99 µM) | 4 µg/mL (≈ 7.99 µM) | 4 µg/mL (≈ 7.99 µM) | 4 µg/mL (≈ 7.99 µM) | 4 µg/mL (≈ 7.99 µM) | 1 µg/mL (≈ 2 µM)

Source: patent publication US20040254162A1, “Oxazolidinone derivatives as antimicrobials” (priority 2001, published 2004)
